Molecules are shown by their SMILES.

3 compounds from patent US5141865A, “Monoclonal antibodies which bind thromboxane A2 receptor antagonists and diagnostic methods based thereon” (priority 1989, dated 1992) can be followed below.

For the assay, the system named is monoclonal antibody MCTX1. In words: Competitive radioimmunoassay (RIA) with MCTX1 and radiolabel-1; standard curve and cross-reactivity. The format is binding, mouse. As to conditions: for percent cross-reactivity with MCTX1: ED50 of cross-reactant relative to ED50 of Compound I x 100, standards and cross-reactants in PBS. How it is done: Sera from immunized mice and media collected from wells containing HAT selected hybridomas were tested for the presence of antibodies recognizing Compound I by RIA. Undiluted media (50 μl) was incubated overnight at 4° C. with PBS (50 μl), normal human sera (50 μl) and [^125 I]-iodohistamine - Compound I (radiolabel-1) in PBS (200 μl, 50,000 CPM). After incubation, 1.0 ml of PEG 8000 (Fisher Scientific, Fairlawn, N.J.) (25% wt/vol) was added as separant; samples were centrigued at room temperature at 2000×g for 10 to 15 minutes and the supernatant decanted. Radioactivity associated with the precipitate was then determined using an APEX automatic gamma counter (ICN Micromedic Systems). Satisfactory zero binding and sensitivity were obtained after an overnight incubation at 4° C.
In order to assay samples for thromboxane A2 receptor antagonist, the same procedure was used, except that 50 μl of sample was used in place of the 50 μl of PBS.
In this regard, for construction of the standard curve and determination of cross-reactivity, standards and cross-reactants were prepared in PBS. Three cross-reactants were examined: the dinor and tetranor, possible metabolites of Compound I, and a related compound, Compound II, which lacks most of the omega side chain (Table 2).
To further characterize the specific structural features (epitope) within Compound I that are recognized by MCTX1, various derivatives of Compound I were tested for their cross-reactivity. The percent cross-reactivity was determined by dividing the ED50 of Compound I into the ED50 of the cross-reactants and multiplying the result by 100. […] Two potential metabolites of Compound I, the dinor and tetranor derivatives, had cross-reactivities of 66% and 17.6%, respectively. Both of these compounds have shortened alpha-side chains and no modifications in their omega-side chain. The extent of cross-reactivityof both alpha-side chain metabolites became less as the alpha-side chain became more truncated. […]

Consider `COC(=O)CCC=CCC1C2CCC(O2)C1CN` (stereo not drawn) [Compound II], for which the “recognition by MCTX1 (cross-reactivity test)” value (cross-reactant prepared in PBS) is reported as “not recognized by MCTX1”. For `CCCCCCC(=O)NCC(=O)NCC1C2CCC(O2)C1CC=CCC(=O)O` (stereo not drawn) [dinor], the “percent cross-reactivity with MCTX1” value turned out to be 66%. Consider `CCCCCCC(=O)NCC(=O)NC[C@H]1[C@@H](CCC(=O)O)[C@@H]2CC[C@H]1O2` [tetranor], for which the “percent cross-reactivity with MCTX1” value came out at 17.6%.
